The text below walks through data of the supplement of paper PMC10307832.

Common to all, as to assay: relative viability (nuclei count vs DMSO), 5 days (fraction); higher = more cells survive
Compound in the assay “Vismodegib + Navitoclax”: CS(=O)(=O)c1ccc(C(=O)Nc2ccc(Cl)c(-c3ccccn3)c2)c(Cl)c1 [Vismodegib] + CC1(C)CCC(c2ccc(Cl)cc2)=C(CN2CCN(c3ccc(C(=O)NS(=O)(=O)c4ccc(N[C@H](CCN5CCOCC5)CSc5ccccc5)c(S(=O)(=O)C(F)(F)F)c4)cc3)CC2)C1 [Navitoclax] (partner 0.5 µM)
The procedure, abridged:
(§1)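 Five library-drug doses in √10 steps were combined with a fixed anchor-drug dose, or a single drug was given alone, by pin tool to lung cancer cell lines in 1536-well plates the day after seeding. Nuclei were stained and counted after 5 days. Relative viability is the nuclei count in treated wells over that in vehicle wells, taken as the median of duplicate plates.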

Compound in the assay “Vismodegib + Pemetrexed”: CS(=O)(=O)c1ccc(C(=O)Nc2ccc(Cl)c(-c3ccccn3)c2)c(Cl)c1 [Vismodegib] + Nc1nc2[nH]cc(CCc3ccc(C(=O)N[C@@H](CCC(=O)O)C(=O)O)cc3)c2c(=O)[nH]1 [Pemetrexed] (partner 0.2 µM)
The procedure, abridged: as §1

Compound in the assay “VE-821 + Dasatinib”: CS(=O)(=O)c1ccc(-c2cnc(N)c(C(=O)Nc3ccccc3)n2)cc1 [VE-821] + Cc1nc(Nc2ncc(C(=O)Nc3c(C)cccc3Cl)s2)cc(N2CCN(CCO)CC2)n1 [Dasatinib] (partner 0.075 µM)
The procedure, abridged: as §1

Compound in the assay “Vismodegib + Palbociclib”: CS(=O)(=O)c1ccc(C(=O)Nc2ccc(Cl)c(-c3ccccn3)c2)c(Cl)c1 [Vismodegib] + CC(=O)c1c(C)c2cnc(Nc3ccc(N4CCNCC4)cn3)nc2n(C2CCCC2)c1=O [Palbociclib] (partner 0.5 µM)
The procedure, abridged: as §1

On to NCI-H2126, for which the relative viability in the assay with Vismodegib + Navitoclax (first compound 0.08 µM) is 0.838; with Vismodegib + Navitoclax (first compound 0.253 µM) it was 0.846; with Vismodegib + Navitoclax (first compound 0.8 µM) it was 0.864; with Vismodegib + Navitoclax (first compound 2.53 µM) it was 0.802; with Vismodegib + Navitoclax (first compound 8 µM), 0.766; with Vismodegib + Pemetrexed (first compound 0.08 µM), 0.717. For the same cell line, the relative viability came out at 0.664 with Vismodegib + Pemetrexed (first compound 0.253 µM); 0.661 in the assay with Vismodegib + Pemetrexed (first compound 0.8 µM); 0.623 with Vismodegib + Pemetrexed (first compound 2.53 µM); 0.681 with Vismodegib + Pemetrexed (first compound 8 µM); 0.57 with VE-821 + Dasatinib (first compound 0.08 µM); 0.52 with VE-821 + Dasatinib (first compound 0.253 µM). Also, the relative viability in the assay with VE-821 + Dasatinib (first compound 0.8 µM) turned out to be 0.515; with VE-821 + Dasatinib (first compound 2.53 µM) it was 0.427; in the assay with VE-821 + Dasatinib (first compound 8 µM), 0.36; with Vismodegib + Palbociclib (first compound 0.08 µM) it was 0.329; in the assay with Vismodegib + Palbociclib (first compound 0.253 µM) it was 0.335; with Vismodegib + Palbociclib (first compound 0.8 µM), 0.342. Besides, the relative viability with Vismodegib + Palbociclib (first compound 2.53 µM) came to 0.333; in the assay with Vismodegib + Palbociclib (first compound 8 µM) it was 0.328.

With NCI-H2170, the relative viability with Vismodegib + Navitoclax (first compound 0.08 µM) was found to be 0.683; with Vismodegib + Navitoclax (first compound 0.253 µM) it was 0.602; with Vismodegib + Navitoclax (first compound 0.8 µM), 0.755; with Vismodegib + Navitoclax (first compound 2.53 µM), 0.473; with Vismodegib + Navitoclax (first compound 8 µM), 0.617; with Vismodegib + Pemetrexed (first compound 0.08 µM) it was 0.254. The relative viability with Vismodegib + Pemetrexed (first compound 0.253 µM) was 0.272; in the assay with Vismodegib + Pemetrexed (first compound 0.8 µM), 0.304; with Vismodegib + Pemetrexed (first compound 2.53 µM), 0.253; with Vismodegib + Pemetrexed (first compound 8 µM) it was 0.284; with VE-821 + Dasatinib (first compound 0.08 µM) it was 0.62; with VE-821 + Dasatinib (first compound 0.253 µM) it was 0.465. Further, the relative viability stood at 0.463 in the assay with VE-821 + Dasatinib (first compound 0.8 µM); 0.421 with VE-821 + Dasatinib (first compound 2.53 µM); 0.381 in the assay with VE-821 + Dasatinib (first compound 8 µM); 0.432 with Vismodegib + Palbociclib (first compound 0.08 µM); 0.387 with Vismodegib + Palbociclib (first compound 0.253 µM); 0.469 in the assay with Vismodegib + Palbociclib (first compound 0.8 µM). The values for the relative viability with Vismodegib + Palbociclib (first compound 2.53 µM) and with Vismodegib + Palbociclib (first compound 8 µM) were 0.379 and 0.418, respectively.

In the case of NCI-H2228, the relative viability was determined as 0.838 in the assay with Vismodegib + Navitoclax (first compound 0.08 µM); 1.1 with Vismodegib + Navitoclax (first compound 0.253 µM); 0.932 with Vismodegib + Navitoclax (first compound 0.8 µM); 0.741 with Vismodegib + Navitoclax (first compound 2.53 µM); 0.901 with Vismodegib + Navitoclax (first compound 8 µM); 0.342 with Vismodegib + Pemetrexed (first compound 0.08 µM). The relative viability in the assay with Vismodegib + Pemetrexed (first compound 0.253 µM) was found to be 0.401; with Vismodegib + Pemetrexed (first compound 0.8 µM), 0.291; with Vismodegib + Pemetrexed (first compound 2.53 µM) it was 0.316; with Vismodegib + Pemetrexed (first compound 8 µM), 0.333; with VE-821 + Dasatinib (first compound 0.08 µM), 0.602; with VE-821 + Dasatinib (first compound 0.253 µM), 0.457. In addition, the relative viability in the assay with VE-821 + Dasatinib (first compound 0.8 µM) was 0.621; in the assay with VE-821 + Dasatinib (first compound 2.53 µM), 0.528; with VE-821 + Dasatinib (first compound 8 µM), 0.31; in the assay with Vismodegib + Palbociclib (first compound 0.08 µM), 0.927; with Vismodegib + Palbociclib (first compound 0.253 µM), 0.74; with Vismodegib + Palbociclib (first compound 0.8 µM), 0.761. Further, the relative viability was found to be 0.627 with Vismodegib + Palbociclib (first compound 2.53 µM) and 0.955 with Vismodegib + Palbociclib (first compound 8 µM).

As to NCI-H2347, the relative viability was found to be 0.735 with Vismodegib + Navitoclax (first compound 0.08 µM); 0.821 in the assay with Vismodegib + Navitoclax (first compound 0.253 µM); 0.766 with Vismodegib + Navitoclax (first compound 0.8 µM); 0.763 in the assay with Vismodegib + Navitoclax (first compound 2.53 µM); 0.792 in the assay with Vismodegib + Navitoclax (first compound 8 µM); 0.423 with Vismodegib + Pemetrexed (first compound 0.08 µM). Moreover, the relative viability turned out to be 0.423 with Vismodegib + Pemetrexed (first compound 0.253 µM); 0.459 in the assay with Vismodegib + Pemetrexed (first compound 0.8 µM); 0.435 with Vismodegib + Pemetrexed (first compound 2.53 µM); 0.458 with Vismodegib + Pemetrexed (first compound 8 µM); 0.299 with VE-821 + Dasatinib (first compound 0.08 µM); 0.319 with VE-821 + Dasatinib (first compound 0.253 µM). The relative viability in the assay with VE-821 + Dasatinib (first compound 0.8 µM) stood at 0.344; with VE-821 + Dasatinib (first compound 2.53 µM), 0.329; with VE-821 + Dasatinib (first compound 8 µM), 0.262; with Vismodegib + Palbociclib (first compound 0.08 µM) it was 0.443; with Vismodegib + Palbociclib (first compound 0.253 µM), 0.418; in the assay with Vismodegib + Palbociclib (first compound 0.8 µM), 0.419. Further, the values for the relative viability with Vismodegib + Palbociclib (first compound 2.53 µM) and in the assay with Vismodegib + Palbociclib (first compound 8 µM) were 0.448 and 0.488, respectively.

For the cell line NCI-H2405, the relative viability in the assay with Vismodegib + Navitoclax (first compound 0.253 µM) worked out at 0.93; in the assay with Vismodegib + Navitoclax (first compound 0.8 µM), 0.86; in the assay with Vismodegib + Navitoclax (first compound 2.53 µM), 0.712; with Vismodegib + Navitoclax (first compound 8 µM), 0.904; in the assay with Vismodegib + Pemetrexed (first compound 0.08 µM), 1.13; with Vismodegib + Pemetrexed (first compound 0.253 µM), 1.03. The relative viability in the assay with Vismodegib + Pemetrexed (first compound 0.8 µM) is 1.03; with Vismodegib + Pemetrexed (first compound 2.53 µM), 1.01; in the assay with Vismodegib + Pemetrexed (first compound 8 µM) it was 1.01; with VE-821 + Dasatinib (first compound 0.08 µM) it was 0.178; with VE-821 + Dasatinib (first compound 0.253 µM), 0.211; with VE-821 + Dasatinib (first compound 0.8 µM), 0.202. Further, the relative viability in the assay with VE-821 + Dasatinib (first compound 2.53 µM) is 0.203; with VE-821 + Dasatinib (first compound 8 µM), 0.205; in the assay with Vismodegib + Palbociclib (first compound 0.08 µM), 0.527; in the assay with Vismodegib + Palbociclib (first compound 0.253 µM), 0.493; with Vismodegib + Palbociclib (first compound 0.8 µM) it was 0.498; with Vismodegib + Palbociclib (first compound 2.53 µM), 0.515. In addition, the relative viability with Vismodegib + Palbociclib (first compound 8 µM) was 0.571.

Regarding NCI-H3122, the relative viability with Vismodegib + Navitoclax (first compound 0.08 µM) is 1.01; with Vismodegib + Navitoclax (first compound 0.253 µM), 1.04; with Vismodegib + Navitoclax (first compound 0.8 µM), 0.994; in the assay with Vismodegib + Navitoclax (first compound 2.53 µM), 0.984; with Vismodegib + Navitoclax (first compound 8 µM), 1.02; in the assay with Vismodegib + Pemetrexed (first compound 0.08 µM), 0.201. For the same cell line, the relative viability with Vismodegib + Pemetrexed (first compound 0.253 µM) was determined as 0.199; with Vismodegib + Pemetrexed (first compound 0.8 µM) it was 0.228; with Vismodegib + Pemetrexed (first compound 2.53 µM) it was 0.184; in the assay with Vismodegib + Pemetrexed (first compound 8 µM), 0.19; with VE-821 + Dasatinib (first compound 0.08 µM), 0.946; in the assay with VE-821 + Dasatinib (first compound 0.253 µM), 0.726. The relative viability in the assay with VE-821 + Dasatinib (first compound 0.8 µM) amounted to 0.83; with VE-821 + Dasatinib (first compound 2.53 µM), 0.874; in the assay with VE-821 + Dasatinib (first compound 8 µM) it was 0.694; with Vismodegib + Palbociclib (first compound 0.08 µM), 0.173; with Vismodegib + Palbociclib (first compound 0.253 µM) it was 0.191; in the assay with Vismodegib + Palbociclib (first compound 0.8 µM) it was 0.167. Moreover, the relative viability with Vismodegib + Palbociclib (first compound 2.53 µM) was 0.18; in the assay with Vismodegib + Palbociclib (first compound 8 µM), 0.19.
